≈ marks a conversion by molar mass, not a printed value. Like-named read-outs stand apart in the source and are kept apart here.
Legend:
Test in all cases: MIC measurement, YAG medium
Assay type in all cases: cell-based
[1] = tested on: Aspergillus flavus; conditions: MIC banded into grades, lowest concentration inhibiting growth by >70%; for MIC: Aspergillus flavus
Method in brief: (§1)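 Spores from 5-day Sabouraud agar cultures were diluted in YAG medium (1% glucose, 1% ammonium chloride, 0.5% yeast extract) to a final inoculum of 1-2×10^4 cfu/mL, with drug at 50-0.05 mg/L. Plates were incubated 24 h at 35° C and read as OD 485 nm. MIC is the lowest concentration giving >70% inhibition versus drug-free control, in mg/L.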

[2] = tested on: Aspergillus fumigatus AF210; conditions: MIC banded into grades; for MIC: Aspergillus fumigatus, strain AF210, read-out: MIC A. fumigatus 210
Method in brief: as §1

[3] = tested on: Aspergillus niger; conditions: MIC banded into grades; for MIC: Aspergillus niger
Method in brief: as §1

[4] = tested on: Aspergillus terreus AT49; conditions: MIC banded into grades; for MIC: Aspergillus terreus, strain AT49, read-out: MIC A. terreus 49
Method in brief: as §1

[5] = tested on: Aspergillus terreus; conditions: MIC banded into grades, strain not named in head (AT4); for MIC: Aspergillus terreus
Method in brief: as §1

[6] = tested on: Aspergillus fumigatus; conditions: for MIC: Aspergillus fumigatus, read-out: MIC A. fumigatus
Method in brief: as §1

[7] = YAG medium, MIC banded into grades, strain AF293

Row | SMILES | MIC [1] [mg/L] | MIC [2] [mg/L] | MIC [3] [mg/L] | MIC [4] [mg/L] | MIC [5] [mg/L] | MIC [6, 7] [mg/L] | MIC A. flavus [1] | MIC A. fumigatus 210 ([2]; strain AF210) | MIC A. niger [3] | MIC A. terreus 49 ([4]; strain AT49) | MIC A. terreus [5] | MIC A. fumigatus [6, 7] | MIC [6] [mg/L]
1 | O=C(Nc1ccc(N2CCN(c3ccccn3)CC2)cc1)C(=O)c1c(-c2ccccc2)cc2ccc(F)cn12 [Example 42, 2-(6-Fluoro-2-phenyl-indolizin-3-yl)-2-oxo-N-[4-(4-pyridin-2-yl-piperazin-1-yl)phenyl] acetamide] | < 1 | < 1 | < 1 | < 1 | < 1 | < 1 | – | – | – | – | – | – | –
2 | O=C(Nc1ccc(N2CCN(Cc3ccco3)CC2)cc1)C(=O)c1c(-c2ccccc2)cc2ccccn12 [Example 31, 4-[4-(2-Furan-2-yl-methyl-piperazin-yl)-phenyl]-2-oxo-2-(2-phenyl-indolizin-3-yl)-acetamide] | < 1 | < 1 | < 1 | < 1 | < 1 | < 1 | – | – | – | – | – | – | –
3 | Cc1ccccc1-c1cc2ccccn2c1C(=O)C(=O)Nc1ccc(N2CCN(Cc3ccco3)CC2)cn1 [Example 35, N-[5-(2-Furan-2-yl-methyl-piperazin-yl)-peridin-2-yl]-2-oxo-2-(2-o-tolyl-indolizin-3-yl)-acetamide] | – | – | – | – | – | – | 3 (A grade of 3 represents an MIC of less than 1 mg/L) | 3 (A grade of 3 represents an MIC of less than 1 mg/L) | 3 (A grade of 3 represents an MIC of less than 1 mg/L) | 3 (A grade of 3 represents an MIC of less than 1 mg/L) | 3 (A grade of 3 represents an MIC of less than 1 mg/L) | 3 (A grade of 3 represents an MIC of less than 1 mg/L) | –
4 | O=C(Nc1ccc(N2CCN(c3ccccn3)CC2)cc1)C(=O)c1c(-c2ccccc2)cc2ccccn12 [Example 41, 2-Oxo-2-(2-phenyl-indolizin-3yl)-N-[4-(4-pyridin-2-yl-piperizin-1-yl)-phenyl]-acetamide] | < 1 | < 1 | < 1 | < 1 | < 1 | < 1 | – | – | – | – | – | – | –
5 | Cc1cc(C)nc(N(C)CCCc2ccc(NC(=O)C(=O)c3c(-c4ccccc4)cc4ccccn34)cc2)c1 [Example 70, N-(4-{3-[(4,6-Dimethyl-pyridin-2-yl)-methyl-amino]-propyl}-phenyl)-2-oxo-2-(2-phenyl-indolizin-3-yl)-acetamide] | < 1 | < 1 | < 1 | < 1 | < 1 | < 1 | – | – | – | – | – | – | –
6 | CCn1ccnc1Cc1ccc(NC(=O)C(=O)c2c(-c3ccccc3C)cc3ccccn23)cc1 [Example 30, N-[4-(3-Ethyl-1H-imidazol-2ylmethyl)-phenyl]-2-oxo-2-(2-o-tolyl-indolizin-3yl)-acetamide] | > 10 | > 10 | > 10 | > 10 | > 10 | > 10 | – | – | – | – | – | – | –
7 | Cc1cc(N2CCN(c3ccc(NC(=O)C(=O)c4c(-c5ccccc5)cc5ccccn45)cc3)CC2)nc(C)n1 [Example 45] | < 1 | < 1 | 1 to 10 (≈ 1.88 to 18.8 µM) | < 1 | < 1 | < 1 | – | – | – | – | – | – | –
8 | O=C(Nc1ccc(N2CCN(Cc3ccco3)CC2)nc1)C(=O)c1c(-c2ccccc2)cc2ccccn12 [Example 34] | < 1 | < 1 | < 1 | < 1 | < 1 | < 1 | – | – | – | – | – | – | –
9 | O=C(Nc1ccc(N2CCN(Cc3cccs3)CC2)cc1)C(=O)c1c(-c2ccccc2)cc2ccccn12 [Example 33, 2-Oxo-2-(2-phenylindolizin-3-yl)-N-[4-(4-thiophen-2-ylmethylpiperazin-1-yl)phenyl] acetamide] | < 1 | < 1 | < 1 | < 1 | < 1 | < 1 | – | – | – | – | – | – | –
10 | O=C(Nc1ccc(N2CCN(c3ccc(CN4CCOCC4)cn3)CC2)cc1)C(=O)c1c(-c2ccccc2)cc2ccccn12 [Example 77, N-{4-[4-(5-morpholin-4-yl-methyl-pyridin-2-yl)-piperazin-1-yl]-phenyl}-2-oxo-2-(2-phenyl-indolizin-3-yl)-acetamide] | < 1 | < 1 | < 1 | < 1 | < 1 | < 1 | – | – | – | – | – | – | –
11 | Cc1nc(C(C)C)cn1C(C)(C)c1cccc(NC(=O)C(=O)c2c(-c3ccccc3)cc3ccccn23)c1 [Example 25] | 1 to 10 (≈ 1.98 to 19.8 µM) | > 10 | > 10 | 1 to 10 (≈ 1.98 to 19.8 µM) | 1 to 10 (≈ 1.98 to 19.8 µM) | > 10 | – | – | – | – | – | – | –
12 | O=C(Nc1ccc(N2CCN(CCc3ccccn3)CC2)cc1)C(=O)c1c(-c2ccccc2)cc2ccccn12 [Example 36, 2-Oxo-2-(2-phenyl-indolizin-3-yl)-N-{4-[4-(2-pyridin-yl-ethyl)-perazin-1-yl]-phenyl}-acetamide] | < 1 | < 1 | < 1 | < 1 | < 1 | < 1 | – | – | – | – | – | – | –
13 | COCCOCCOc1cc(C)nc(N2CCN(c3ccc(NC(=O)C(=O)c4c(-c5ccccc5)cc5ccccn45)cc3)CC2)c1 [Example 76, N-[4-(4-{4-[2-(2-methoxy-ethoxy)-ethoxyl]-6-methyl-pyridin-2-yl}-piperazin-1-yl)-phenyl]-2-oxo-2-(2-phenyl-indolizin-3-yl)-acetamide] | – | – | – | – | – | < 1 | – | – | – | – | – | – | –
14 | O=C1Cc2cc(NC(=O)C(=O)c3c(-c4ccccc4)cc4ccccn34)ccc2N1 [Example 9, 2-Oxo-N-(2-oxo-2,3-dihydro-1H-indol-5-yl)-2-(2-phenyl-indolizin-3-yl)-acetamide] | – | – | – | – | – | – | – | – | – | – | – | – | > 10
15 | CCc1ccnc(N2CCN(c3ccc(NC(=O)C(=O)c4c(-c5ccccc5)cc5ccccn45)cc3)CC2)c1 [Example 75, N-{4-[4-(4-ethyl-pyridin-2-yl)-piperazin-1-yl]-phenyl}-2-oxo-2-(2-phenyl-indolizin-3-yl)-acetamide] | – | – | – | – | – | < 1 | – | – | – | – | – | – | –
16 | CCOCCN(C1=NC(C)(C)CO1)c1ccc(NC(=O)C(=O)c2c(-c3ccccc3)cc3ccccn23)cc1 [Example 28] | 1 to 10 (≈ 1.91 to 19.1 µM) | 1 to 10 (≈ 1.91 to 19.1 µM) | < 1 | 1 to 10 (≈ 1.91 to 19.1 µM) | 1 to 10 (≈ 1.91 to 19.1 µM) | 1 to 10 (≈ 1.91 to 19.1 µM) | – | – | – | – | – | – | –
17 | CCC(CC)N1CCN(c2ccc(NC(=O)C(=O)c3c(-c4ccccc4Cl)cc4ccccn34)cn2)CC1 [Example 10, 2-[2-(2-chloro-phenyl)-indolizin-3-yl]-N-{6-[4-(1-ethyl-propyl)-piperazin-1-yl]-pyridin-3-yl}-2-oxo-acetamide] | – | – | – | – | – | < 1 | – | – | – | – | – | – | –
18 | Cc1cc(C)nc(N2CCC(O)(c3ccc(NC(=O)C(=O)c4c(-c5ccccc5)cc5ccccn45)cc3)CC2)c1 [Example 79, N-[4-(4-hydroxy-4′,6′-dimethyl-3,4,5,6-tetrahydro-2H-[1,2′]-bipyridinyl-4-yl)-phenyl]-2-oxo-2-(2-phenyl-indolizin-3-yl)-acetamide] | – | – | – | – | – | > 10 | – | – | – | – | – | – | –

Reference: patent US8604029B2, “2-[(2-substituted)-indolizin-3-yl]-2-oxo-acetamide derivatives as antifungal agents” (F2G Ltd British Body Corporate, priority 2006, dated 2013)
